Results taken from patent EP4664463A1, “COMPUTER-IMPLEMENTED METHOD FOR OLFACTORY PROPERTY PREDICTION” (Givaudan SA, priority 2024, dated 2025).
Values belong to the compound of their own block, whether it stands above or below them.

Experiments:
[1] = test system: library of all class II OR with modified C-terminal domain RNKEVKKAIKRLFKRKCCRRR (SEQ ID NO: 221); assay: Screening of the library of all class II OR with single odorants (luciferase); assay type: cell-based, human; conditions: full class II OR library (n = 408); maximal non-cytotoxic concentration
Procedure: All human class II OR and all key genetic variants of these OR were synthesized with a sequence coding for an identical modified C-terminal domain […] (SEQ ID NO: 221) in the vector pcDNA3.1(+) to generate a library of all class II OR with an improved C-terminal domain. Class II OR library members with modified C-terminal domains
Parallel transfection experiments were conducted with all these plasmids (n = 408) and cells expressing the different OR were stimulated with one given ligand at a time, tested at the maximal, clearly non-cytotoxic concentration. In total 26 different ligands were tested on the full library of class II receptors.

[2] = biological target: T1, OR identified in the library screening (receptor named per line) (Homo sapiens, UniProt Q8WZ84); assay: Confirmatory dose-response of library hits, wild-type OR vs OR with C-terminus SEQ ID NO: 221 (Table 17); assay type: cell-based; conditions: receptor OR8D1, wild-type sequence; read-out: Potency EC50 wild-type (converted)
T1 construct: expressed in transfected cells; host or cells: HEK293T stably expressing human RTP1S(V227I) and RTP2(L220R) (general method)
Procedure: (§2) Selected ligand - OR pairs were then tested in a confirmatory test with a dose response analysis.
(§3) Dose-response analysis with the cognate ligand was then performed for both the wild-type and the modified sequence.

[3] = biological target: T2, OR identified in the library screening (receptor named per line) (Homo sapiens, UniProt Q8NGN4); assay: as above; assay type: cell-based; conditions: receptor OR10G9, wild-type sequence; read-out: Potency EC50 wild-type (converted)
T2 construct: expressed in transfected cells; host or cells: HEK293T stably expressing human RTP1S(V227I) and RTP2(L220R) (general method)
Procedure: as §2, §3

OR52A5 [4] = assay: cell-based; assay type: cell-based, human
Text: (§1) To create an expression plasmid, an OR coding sequence fused at the end of TM7 to the desired C-terminus sequence was synthesized by a DNA synthesis service provider (BioCat GmbH, Germany) and inserted into pcDNA3.1(+) (Invitrogen, MA, USA) downstream of the CMV promoter sequence (SEQ ID NO: 82) using BamHI and Notl restriction sites. All the synthetic OR nucleotide sequences described below in Examples 1-15 further contained at their N-terminus a nucleotide sequence encoding a signal peptide (mmLucy-FLAG-rho, SeQ ID NOs: 80, 81) and at the C-terminus the bgh terminator sequence (SEQ ID NO: 83). All the OR expression plasmids also contain a Kozak sequence (GCCACC) between the BamHI restriction site and the start codon of the signal peptide. These plasmids thus contain a constitutively expressed OR gene.

OR52A5 [5] = biological target: T3, OR52A5 (Homo sapiens, UniProt Q9H2C5); assay: cell-based; assay type: cell-based
T3 construct: expressed in transfected cells; host or cells: HEK293T cells stably expressing human RTP1S (V227I) and RTP2 (L220R)
Text: as §1
T3 sequence (Q9H2C5 whole entry): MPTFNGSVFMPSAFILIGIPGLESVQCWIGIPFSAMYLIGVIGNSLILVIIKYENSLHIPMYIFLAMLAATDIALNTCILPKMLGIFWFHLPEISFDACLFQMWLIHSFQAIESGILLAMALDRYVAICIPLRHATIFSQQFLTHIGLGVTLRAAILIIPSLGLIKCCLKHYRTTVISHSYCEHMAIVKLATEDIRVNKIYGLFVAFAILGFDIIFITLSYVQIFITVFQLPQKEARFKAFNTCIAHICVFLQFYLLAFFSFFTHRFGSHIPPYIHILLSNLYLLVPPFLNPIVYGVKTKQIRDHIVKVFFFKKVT

OR52A5 [6] = biological target: T4, OR52A5 (Homo sapiens, UniProt Q9H2C5); assay: cell-based; assay type: cell-based; remark: listed apart in the source
T4 construct: expressed in transfected cells; host or cells: HEK293T cells stably expressing human RTP1S (V227I) and RTP2 (L220R)
Text: as §1
T4 sequence (Q9H2C5 with tags, fused parts or gaps): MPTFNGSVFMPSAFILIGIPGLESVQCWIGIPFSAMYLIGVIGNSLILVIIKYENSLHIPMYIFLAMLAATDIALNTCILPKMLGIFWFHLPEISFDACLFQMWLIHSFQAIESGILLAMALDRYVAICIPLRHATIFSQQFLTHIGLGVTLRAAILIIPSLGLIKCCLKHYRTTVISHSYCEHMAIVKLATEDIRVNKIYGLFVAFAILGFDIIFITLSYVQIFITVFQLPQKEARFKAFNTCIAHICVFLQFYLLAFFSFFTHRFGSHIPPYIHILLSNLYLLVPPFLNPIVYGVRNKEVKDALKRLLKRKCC

[7] = test system: library of all class I OR with C-terminal domain RNKQIRDALKRLLKRKCCRRR (SEQ ID NO: 741); assay: Screening of the library of all class I OR with carboxylic acid ligands (luciferase); assay type: cell-based, human; conditions: full class I OR library (n = 77)
Procedure: All human class I OR and all key genetic variants of these OR were synthesized with a sequence coding for the identical C-terminal domain […] (SEQ ID NO: 741) in the vector pcDNA3.1(+) to generate a library of all class I OR with an improved C-terminal domain. Class I OR library members
Parallel transfection experiments were conducted with all these plasmids (n = 77, SEQ ID NO: 760, OR51F1 was excluded due to poor plasmid yield) and cells expressing the different OR were stimulated with one given ligand at a time. In total 10 different carboxylic acids ligands were tested on the full library of class I receptors.

[8] = biological target: T5, OR identified in the library screening (receptor named per line) (Homo sapiens, UniProt Q8NGJ0); assay: Confirmatory dose-response of library hits, wild-type OR vs OR with C-terminus SEQ ID NO: 221 (Table 17); assay type: cell-based
T5 construct: expressed in transfected cells; host or cells: HEK293T stably expressing human RTP1S(V227I) and RTP2(L220R) (general method)
Procedure: as §2, §3

[9] = biological target: T6, OR identified in the library screening (receptor named per line) (Homo sapiens, UniProt Q8NGC4, S73G); assay: as above; assay type: cell-based; conditions: receptor OR10G3(S73G), wild-type sequence; read-out: Potency EC50 wild-type (converted)
T6 construct: expressed in transfected cells; host or cells: HEK293T stably expressing human RTP1S(V227I) and RTP2(L220R) (general method)
Procedure: as §2, §3

OR2T4 [10] = assay: cell-based; assay type: cell-based, human
OR2T4 [11] = biological target: T7, OR2T4 (Homo sapiens, UniProt Q8NH00, D328E/G331D/M330K); assay: cell-based; assay type: cell-based
T7 construct: expressed in transfected cells; host or cells: HEK293T cells stably expressing human RTP1S (V227I) and RTP2 (L220R)
T7 sequence (Q8NH00 with tags, fused parts or gaps D328E/M330K/G331D): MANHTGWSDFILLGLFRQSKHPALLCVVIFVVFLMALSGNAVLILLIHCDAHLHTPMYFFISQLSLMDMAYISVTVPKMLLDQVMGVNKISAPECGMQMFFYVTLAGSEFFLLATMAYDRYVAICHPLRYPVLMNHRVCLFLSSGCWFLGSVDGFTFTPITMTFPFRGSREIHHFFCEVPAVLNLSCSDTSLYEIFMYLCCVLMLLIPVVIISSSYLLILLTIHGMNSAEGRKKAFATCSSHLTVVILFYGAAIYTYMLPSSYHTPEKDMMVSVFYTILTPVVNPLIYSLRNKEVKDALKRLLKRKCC

OR2T4 [12] = biological target: T8, OR2T4 (Homo sapiens, UniProt Q8NH00); assay: cell-based; assay type: cell-based
T8 construct: expressed in transfected cells; host or cells: HEK293T cells stably expressing human RTP1S (V227I) and RTP2 (L220R)

[13] = changed C-term SEQ ID NO: 86, read-out: Potency EC50

T8 sequence (Q8NH00 35-348): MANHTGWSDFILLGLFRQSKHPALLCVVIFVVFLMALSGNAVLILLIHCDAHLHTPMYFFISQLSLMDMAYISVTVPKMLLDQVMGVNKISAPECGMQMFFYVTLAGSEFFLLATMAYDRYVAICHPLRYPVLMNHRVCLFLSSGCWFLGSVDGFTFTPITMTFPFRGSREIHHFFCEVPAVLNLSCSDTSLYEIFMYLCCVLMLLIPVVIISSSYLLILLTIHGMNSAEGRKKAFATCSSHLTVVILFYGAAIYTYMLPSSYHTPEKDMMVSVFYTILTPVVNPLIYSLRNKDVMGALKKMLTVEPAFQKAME
T6 sequence (Q8NGC4 whole entry S73G): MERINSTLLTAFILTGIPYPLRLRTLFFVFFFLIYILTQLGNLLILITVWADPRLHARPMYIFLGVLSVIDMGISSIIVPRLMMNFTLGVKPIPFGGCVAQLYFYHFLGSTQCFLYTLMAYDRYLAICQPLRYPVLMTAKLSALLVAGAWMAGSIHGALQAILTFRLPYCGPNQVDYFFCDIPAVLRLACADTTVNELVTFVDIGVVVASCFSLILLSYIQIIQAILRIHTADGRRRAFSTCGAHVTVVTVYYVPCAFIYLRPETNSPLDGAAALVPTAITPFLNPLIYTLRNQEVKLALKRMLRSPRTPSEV

EC50 [2]: 19 µM
Structure (SMILES): CC1=C(O)C(=O)OC1C (stereo not shown) [Sotolon e]

EC50 [3]: 91.4 µM
Structure (SMILES): CCOc1cc(C)ccc1O [Ultravan il]

Detection threshold; concentration for 2-fold induction (OR52A5 [5]): >1000 µM
Detection threshold; concentration for 2-fold induction (OR52A5 [6]): 101 µM
EC50 (OR52A5 [6]; [13]): 300 µM
Structure (SMILES): CCCCC(CC)CCC(=O)O (stereo not shown) [4-ethyloctanoic acid]
Comments on efficacy (OR52A5 [4]): 2.5-fold lower maximal induction for wild-type
Fold-improvement threshold (OR52A5 [4]): >10

The remaining lines, values behind:

Structure (SMILES): O=C(OCc1ccccc1)c1ccccc1O [Benzyl salicylate]
Activated OR and OR variants [1]: OR2AG2(Y28C)

Structure (SMILES): CC(C)CC(=O)O [3-Methylbutanoic acid]
Activated OR and OR variants [7]: No activation observed

Structure (SMILES): CC(=O)/C=C/C1=C(C)CCCC1(C)C [β-lonone]
EC50 [8]: 48.3 µM

Structure (SMILES): COc1cc(C=O)ccc1O [Vanillin]
EC50 [9]: 261 µM

Structure (SMILES): SC1CCCC1 [Cyclopentanethiol]
Comments on efficacy (OR2T4 [10]): No induction wild-type
Fold-improvement potency (OR2T4 [10]): >>2
Fold-improvement threshold (OR2T4 [10]): >>100
Detection threshold; concentration for 2-fold induction (OR2T4 [11]): 3.89 µM
ligands identified in screening of sulfur odorants (OR2T4 [11]; OR2T4 with SEQ ID NO: 86): good ligands
EC50 (OR2T4 [11]; [13]): 14.6 µM
Detection threshold; concentration for 2-fold induction (OR2T4 [12]): n.i. (>> 316) µM
EC50 (OR2T4 [12]; wild-type, read-out: Potency EC50): > 316 µM
